# Experimental data published in US20240091318A1, “COMBINATION THERAPY COMPRISING LONG ACTING GLP-1/GLUCAGON AND NPY2 RECEPTOR AGONISTS” (Boehringer Ingelheim International GmbH, priority 2022, published 2024).
# How the values were obtained:
# [1] = Effect on acute food intake (AFI) in normal NMRI mice; assay type: in vivo; details: male NMRI mice, 10 nmol/kg s.c. once, % vs. vehicle group
# Procedure: Effect on Acute Food Intake in Normal NMRI Mice
# Male NMRI mice were obtained from Charles River (Charles River, Research Models & Services Germany GmbH) or from JanVier (JanVier Labs, France) at 5 weeks of age. […] Room temperature was controlled to 21° C.±1° C., with 60%±20% humidity.
# Animals were transferred 5-7 days before the start of the study to a real-time food intake monitoring system, HM-2 system (MBRose, Denmark), to allow acclimatization to experimental conditions. As the animals were uniquely identified with microchips, each individual animal was identified by its microchip upon entry and exit from the food channel. Randomization of the mice for each study group (n=7-8) was based on body weight measured the day before the start of the study. A vehicle-treated (50 mM phosphate buffer pH7 with 5% Mannitol) group was included in each experiment. Six hours before the start of the night phase animals were fasted. One hour before the dark phase animals were dosed once subcutaneously (10 nmol/kg) with test peptide. […] The food intake of the treated groups was normalized (in %) to the average food intake of the group receiving vehicle (Table 1). Statistical significance was evaluated using One-way analysis of variance with Turkey's multiple comparison test. P<0.05 was considered statistically significant.
# [2] = Effect on body weight loss and food intake in wildtype Diet Induced Obesity (DIO) mice; assay type: in vivo; details: 30 nmol/kg s.c. once daily, 5 day
# Text: Effect on Body Weight Loss in Wildtype Diet Induced Obesity Mice
# Male C57BL6/J pre-fed on 60% high fat diet were obtained from The Jackson Laboratories at >16 weeks of age. Upon arrival of the Diet Induced Obesity (DIO) mice, the mice where single housed to obtain accurate and individual food intake measurements of each animal and assigned an animal number. […] During the entire study animals had ad libitum access to food and water.
# Before start of treatment a stratified randomization was performed based on the body weight measured in week −1 prior study start. At study start the age of mice was around 20 weeks. Bodyweight and food intake were measured daily before compound administration. Animals were dosed around one hour before start of the night phase by subcutaneous injection of 30 nmol/kg once daily for 5 till 28 days depending on the experiment. Control animals were dosed by subcutaneous injection daily with vehicle.
structure (smiles),measurement,setting,value
"CC(C)CC(=O)N[C@@H](C)C(=O)N1CCC[C@H]1C(=O)N[C@@H](C)C(=O)N[C@@H](CCCCNC(=O)COCCOCCNC(=O)COCCOCCNC(=O)CC[C@H](NC(=O)CCCCCCCCCCCCCCCCC(=O)O)C(=O)O)C(=O)N1CCC[C@H]1C(=O)N[C@@H](CCC(=O)O)C(=O)N[C@@H](CCC(=O)O)C(=O)N[C@@H](CC(=O)O)C(=O)N[C@@H](C)C(=O)N[C@H](C(=O)N1CCC[C@H]1C(=O)N[C@@H](CCC(=O)O)C(=O)N[C@@H](CCC(=O)O)C(=O)N[C@@H](CC(C)C)C(=O)N[C@@H](CCC(N)=O)C(=O)N[C@@H](CCCNC(=N)N)C(=O)N[C@@H](Cc1ccc(O)cc1)C(=O)N[C@@H](Cc1ccc(O)cc1)C(=O)N[C@H](C(=O)N[C@@H](CO)C(=O)N[C@@H](CC(C)C)C(=O)N[C@@H](CCCNC(=N)N)C(=O)N[C@@H](Cc1c[nH]cn1)C(=O)N[C@@H](Cc1ccc(O)cc1)C(=O)N[C@@H](Cc1ccc(O)cc1)C(=O)N[C@@H](CC(N)=O)C(=O)N[C@@H](Cc1c[nH]c2ccccc12)C(=O)N[C@@H](CC(C)C)C(=O)N[C@H](C(=O)N[C@@H](CCCNC(=N)N)C(=O)N[C@@H](CCC(N)=O)C(=O)N[C@@H](CCCNC(=N)N)C(=O)N[C@@H](Cc1ccc(O)cc1)C(N)=O)[C@@H](C)O)C(C)C)[C@@H](C)O [Compound A, N{alpha-4}-(3-methylbutanoyl)-N{epsilon-7}-[2-(2-{2-[2-(2-{2-[(4S)-4-carboxy-4-(17-carboxyheptadecanamido)butanamido]ethoxy}ethoxy)acetamido]ethoxy}ethoxy)acetamido]-[4A,6A,7K,9E,13T,18Q,22V,28Y,30W,31L]hPYY(4-36)]",AFI 10 nmol/kg 24 h (food intake normalized to vehicle group),[1],39%
same,BW 30 nmol/kg 5 day (body weight loss vs. vehicle group),[2],6.7%
